This passage reports outcome results from PubChem BioAssay AID2202554 (NIEHS Division of Translational Toxicology (DTT)).

This data set relates to S. typhimurium/E. coli reverse mutation, colony counts. Put plainly: Bacterial reverse mutation test (aka Ames test) summary data.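 Note: His-minus Salmonella and trp-minus E. coli WP2 uvrA pKM101 with or without liver S9.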 An excerpt:
The Ames test uses bacteria cultures to determine whether a substance causes mutations. Because there is a significant overlap between substances that are mutagens and those that are carcinogens, a quick and inexpensive mutagenicity test is useful as an initial screening for possible carcinogens.
The Ames test relies on specific strains of S. typhimurium, namely: TA97, TA98, TA100, TA102, TA104, TA1535, TA1537, and TA1538. In addition to the S. typhimurium strains, the test may also use the E. coli strain WP2 uvrA pKM101.
Each of the bacterial strains has a mutation that prevents it from making an amino acid (a protein building block) required for normal cell growth. The S. typhimurium strains are unable to manufacture histidine; the E. coli strain cannot manufacture tryptophan. The tester strains will not be able to grow without amino acid supplementation, unless the mutated gene is changed back to the correct DNA sequence (reversion mutation). Being exposed to a mutagenic chemical increases the chance that the mutant gene will be restored to the correct sequence, which allows the bacteria to grow and form colonies. Each substance under study is tested in a variety of bacterial strains with different types of altered DNA sequences in order to provide a comprehensive assessment of the mutagenic potential of the substance.
Some non-mutagenic substances are converted to mutagenic substances when metabolized by the liver; in contrast, some substances that are mutagenic in their natural state are converted to non-mutagens by the liver. All substances are tested in their natural state, as well as in the presence of liver enzymes that can produce this metabolic conversion of the test substance. Extracts of rat, hamster, or mouse liver enzymes (S9 mix) are used for this purpose.
D. Preparing the Cultures
Multiple sets of cultures are prepared using a range of doses and different amounts of liver enzymes for each bacterial strain. Each culture is prepared in a test tube containing a suspension of one bacterial strain and either an S9 mix or plain buffer solution. Then the test substance is added. Negative control cultures are established using the same ingredients, but without the test substance. Positive control cultures are established using known mutagens active in particular bacterial strains and metabolic conditions (for example, with or without S9). Once prepared, each culture is incubated for 20 minutes at 37° C. Agar is then added to the cultures, and the contents of each tube are poured onto the surface of a Petri dish that was prepared with standard bacterial culture medium. The plates are then incubated, usually for two days.
Depending on the substance to be tested, the exposure and incubation processes may be modified. These variations include:
- Elimination of the 20-minute incubation period in a test tube prior to plating (this method is referred to as the standard plate incorporation method)
- Enzymatic reduction of azo and diazo substances (this process occurs in the intestine or liver of animals) using a chemical called flavin mononucleotide (FMN) or intestinal bacterial preparations from rats
- Testing in sealed chambers such as desiccators for volatile and gaseous chemicals.
To validate the test, a trained investigator compares the number of colonies on the chemical-treated plates to the number of colonies on the negative control plates. If the substance under test is mutagenic, the chemical-treated plates will have a much greater number of colonies than the negative control plates.
- A positive response is a reproducible, dose-related increase in mutant colonies in any single strain, with or without the addition of S9 metabolic enzymes. While there is no minimum percentage of increase required for a result to be considered positive, a twofold increase in mutant colonies in a treated plate is usually considered to be a positive (mutagenic) response.
[…]

Results filed as inconclusive are left out. Active and inactive are the calls of the source. The rule behind the calls is not given here.

For the compound `COP(=O)(OC)C(O)C(Cl)(Cl)Cl` (stereo unspecified), the outcome was “active; weakly positive”.

With `Clc1ccc(C(c2ccccc2Cl)C(Cl)Cl)cc1` (stereo unspecified), the outcome was “inactive; negative”.

Consider `OCCOCCO`, for which the outcome was “inactive; negative”.

For `Nc1c(Cl)cc([N+](=O)[O-])cc1Cl`, the outcome is “active; positive”.

As to `COc1cc2c(c3oc(=O)c4c(c13)CCC4=O)[C@@H]1C=CO[C@@H]1O2`, the outcome was “active; positive”.

For the compound `OCCN1CN(CCO)CN(CCO)C1`, the outcome was “active; positive”.

`O=NN(CCO)CCO`: the outcome was “active; positive”.

As to `CN(C)C(=S)SSC(=S)N(C)C`, the outcome was “active; positive”.

Consider `CC(O)C#N` (stereo unspecified), for which the outcome was “active; weakly positive”.

On to `Cc1cc(C)c(N=Nc2c(O)c(S(=O)(=O)O)cc3cc(S(=O)(=O)O)ccc23)cc1C`, for which the outcome is “inactive; negative”.

With `O=[N+]([O-])c1ccc(Cl)cc1`, the outcome was “active; positive”.

Turning to `Cc1c(C(=O)O)c(O)cc2c1C(=O)c1c(O)c([C@@H]3O[C@H](CO)[C@@H](O)[C@H](O)[C@H]3O)c(O)c(O)c1C2=O`, the outcome is “active; weakly positive”.

For the compound `O=C1O[C@H](CO)[C@@H](O)[C@H](O)[C@H]1O`, the outcome was “inactive; negative”.

For the compound `OCC(CBr)(CBr)CBr`, the outcome was “active; positive”.

For `CN1CCCC1=O`, the outcome is “inactive; negative”.

For the compound `CCCCCC`, the outcome was “inactive; negative”.

In the case of `CCCCCN(CCCCC)CCCCC`, the outcome was “inactive; negative”.

On to `Brc1ccc(-c2ccccc2)cc1`, for which the outcome was “inactive; negative”.

Take `CC(=O)c1c(C)c([N+](=O)[O-])c(C(C)(C)C)c([N+](=O)[O-])c1C`: the outcome is “inactive; negative”.

With `CC(C)(OOC(C)(C)c1ccccc1)c1ccccc1`, the outcome is “inactive; negative”.

For `CN(C)C=O`, the outcome was “inactive; negative”.

As to `OCC(CO)(CBr)CBr`, the outcome was “active; positive”.

On to `Cc1cc(N=Nc2ccccc2C)ccc1N`, for which the outcome was “active; positive”.

On to `Oc1cccc(O)c1O`, for which the outcome is “active; positive”.

In the case of `Nc1nccs1`, the outcome is “active; positive”.

`Clc1c(Cl)c(Br)c2c(c1Cl)-c1nc-2nc2[n-]c(nc3nc(nc4[n-]c(n1)c1c(Cl)c(Br)c(Cl)c(Br)c41)-c1c(Cl)c(Cl)c(Br)c(Cl)c1-3)c1c(Br)c(Cl)c(Br)c(Cl)c21.[Cu+2]`: the outcome was “active; positive”.

`CN(C)CCN(Cc1ccccc1)c1ccccc1`: the outcome is “inactive; negative”.

As for `O=C1c2ccccc2-c2ccc3c4c(ccc1c24)-c1ccccc1C3=O`, the outcome was “inactive; negative”.

With `c1ccc(-c2ccccc2)cc1`, the outcome is “inactive; negative”.

Take `C=CCN(CC=C)CC=C`: the outcome is “inactive; negative”.

Consider `N#C/C=C/C#N`, for which the outcome is “inactive; negative”.

For the compound `CCC(C)(C)C`, the outcome was “inactive; negative”.

On to `Cc1ccccc1Br`, for which the outcome is “inactive; negative”.

Turning to `COc1ccc(C(Cl)=C(c2ccc(OC)cc2)c2ccc(OC)cc2)cc1`, the outcome was “inactive; negative”.

Take `CC(CCN(C)C)N(C)C` (stereo unspecified): the outcome is “inactive; negative”.

`CS(=O)(=O)c1ccc(O)c(N)c1`: the outcome is “inactive; negative”.

For `[O]=[V]([OH])([OH])[OH]`, the outcome was “inactive; negative”.

`C1OCOCO1`: the outcome is “inactive; negative”.

Consider `O=C1C(c2[nH]c3ccccc3c2O)=Nc2ccccc21`, for which the outcome is “active; positive”.

On to `C=CCc1ccc(OC)c(OC)c1`, for which the outcome is “inactive; negative”.

For the compound `COc1ccc(C=O)cc1OC`, the outcome is “inactive; negative”.

For `Cc1ccc(S(=O)(=O)NC2CCCCC2)cc1`, the outcome was “inactive; negative”.

For the compound `NO`, the outcome is “active; weakly positive”.

In the case of `Nc1c2c(nc3ccccc13)CCCC2`, the outcome is “active; positive”.

Turning to `O=C(O)c1cc(=O)[nH]c(=O)[nH]1`, the outcome was “inactive; negative”.

As to `COc1ccc(C(=O)Nc2ccccc2)cc1[N+](=O)[O-]`, the outcome is “active; positive”.

For the compound `Cc1cc(-c2ccc(N)c(C)c2)ccc1N`, the outcome was “active; positive”.

Regarding `CC(O)COc1ccccc1` (stereo unspecified), the outcome is “inactive; negative”.

On to `O=C(Cl)c1ccccc1[N+](=O)[O-]`, for which the outcome was “active; positive”.

In the case of `O=C(O)c1ccccc1C(=O)O`, the outcome is “inactive; negative”.

Take `Cc1cccc(C)c1O`: the outcome is “inactive; negative”.

`O=Cc1ccccc1C=O`: the outcome was “active; positive”.

As for `CC(C)NC(C)C`, the outcome was “inactive; negative”.

Take `NCCCOCCOCCOCCCN`: the outcome is “inactive; negative”.

Consider `COC(=O)Nc1cccc(OC(=O)Nc2cccc(C)c2)c1`, for which the outcome is “active; positive”.

Take `CC(CCl)OP(=O)(OC(C)CCl)OC(C)CCl` (stereo unspecified): the outcome is “inactive; negative”.

As to `Cc1cc([N+](=O)[O-])ccc1N`, the outcome was “active; positive”.

In the case of `C=CCNCC=C`, the outcome is “inactive; negative”.

As to `Cc1cccc([N+](=O)[O-])c1N`, the outcome was “active; positive”.

Turning to `Cc1ccc(N=Nc2c(O)ccc3ccccc23)c([N+](=O)[O-])c1`, the outcome is “active; positive”.

`c1ccc(Nc2ccc(Nc3ccccc3)cc2)cc1`: the outcome is “active; positive”.

Consider `Cn1cnc2c1c(=O)[nH]c(=O)n2C`, for which the outcome was “inactive; negative”.

Take `O=CC(Cl)(Cl)Cl`: the outcome was “active; weakly positive”.

For the compound `c1ccncc1`, the outcome is “inactive; negative”.

Turning to `CC(C)(C)N`, the outcome was “inactive; negative”.

In the case of `Nc1c(Br)cc([N+](=O)[O-])cc1[N+](=O)[O-]`, the outcome was “active; positive”.

In the case of `O=C(O)c1ccccc1`, the outcome was “inactive; negative”.

On to `C1=CC2C3C=CC(C3)C2C1` (stereo unspecified), for which the outcome was “inactive; negative”.

As for `S=C=S`, the outcome is “inactive; negative”.

As for `C=C(C)/C([O-])=N/[N+](C)(C)CC(C)O` (stereo unspecified), the outcome is “inactive; negative”.

With `CCNc1cc(O)ccc1C`, the outcome was “active; positive”.

`CNC(=O)c1ccccc1`: the outcome was “inactive; negative”.

Take `N[C@H](Cc1ccccc1)C(=O)O`: the outcome was “inactive; negative”.

As for `CC(C)CON=O`, the outcome is “active; positive”.

Regarding `ClC(Cl)c1ccccc1`, the outcome is “active; positive”.

As for `FC(Cl)(Cl)Cl`, the outcome is “inactive; negative”.

As for `Nc1c(N=Nc2ccc(-c3ccc(N=Nc4ccc(O)cc4)cc3)cc2)c(S(=O)(=O)O)cc2cc(S(=O)(=O)O)c(N=Nc3ccccc3)c(O)c12`, the outcome was “active; positive”.

Turning to `NC(=Nc1ccccc1)Nc1ccccc1`, the outcome is “active; weakly positive”.

On to `Clc1cccc2ccccc12`, for which the outcome is “active; weakly positive”.

Consider `N#CCCl`, for which the outcome was “inactive; negative”.

`O=C(CO)CO`: the outcome was “active; positive”.

Take `C=CCOC(=O)C=C`: the outcome was “inactive; negative”.

As for `Cc1ccc2ccccc2c1`, the outcome was “inactive; negative”.

In the case of `OCCN(CCO)CCO`, the outcome was “inactive; negative”.

In the case of `CC(=O)OC(C)=O`, the outcome was “inactive; negative”.

`Nc1ccccc1C(=O)O`: the outcome was “inactive; negative”.

In the case of `OC1C2(Cl)C3(Cl)C4(Cl)C(Cl)(Cl)C5(Cl)C3(Cl)C1(Cl)C5(Cl)C24Cl` (stereo unspecified), the outcome is “inactive; negative”.

As to `CC(C)CO`, the outcome is “inactive; negative”.

As to `CCC(O)CN` (stereo unspecified), the outcome is “inactive; negative”.

For the compound `CCOc1ccc2c(c1)C(C)=CC(C)(C)N2`, the outcome was “inactive; negative”.

Take `CCCC=O`: the outcome was “inactive; negative”.
